Drawing on patent US7179819B2, “VLA-4 inhibitor compounds” (Daiichi Pharmaceutical Co., Ltd., priority 1999, dated 2007), this text covers melting point for 32 compounds.

`Cc1ccccc1NC(=O)Nc1ccc(CC(=O)N2CCC[C@H]2COc2ccc(C(=O)O)cc2)cc1C` [Compound 83, 4-[1-[3-methyl-4-[N′-(2-methylphenyl)ureido]phenylacetyl]-(2S)-pyrrolidinylmethoxy]benzoic acid] showed a melting point of 191 to 193 °C.
For the compound `O=C(Nc1ccc(CC(=O)N2C[C@@H](F)C[C@H]2COc2ccc(C(=O)O)cc2)cc1)Nc1c(Cl)cccc1Cl` [Compound 87, 4-[1-[4-[N′-(2,6-dichlorophenyl)ureido]phenylacetyl]-(4S)-fluoro-(2S)-pyrrolidinyl]methoxy benzoic acid], the melting point is 168 to 172 °C (dec.).
`COc1cc(CC(=O)N2C[C@@H](F)C[C@H]2COc2ccc(C(=O)O)cc2)ccc1NC(=O)Nc1c(Cl)cccc1Cl` [Compound 88, 4-[1-[4-[N′-(2,6-dichlorophenyl)ureido]-3-methoxyphenylacetyl]-(4S)-fluoro-(2S)-pyrrolindinyl]methoxybenzoic acid]: the melting point is 162 to 168 °C (dec.).
As for `COc1cc(CC(=O)N2C[C@@H](Cl)C[C@H]2COc2ccc(C(=O)O)cc2)ccc1NC(=O)Nc1ccccc1Br` [Compound 103, 4-[1-[4-[N′-(2-bromophenyl)ureido]-3-methoxyphenylacetyl]-(4S)-chloro-(2S)-pyrrolidinyl]methoxybenzoic acid], the figure is 127 to 132 °C; as for `COc1cc(CC(=O)N2C[C@@H](O)C[C@H]2COc2ccc(C(=O)O)cc2)ccc1NC(=O)Nc1ccccc1C` [Compound 106], 148 to 152 °C (dec.).
Regarding `COc1cc(CC(=O)N2C[C@@H](O)C[C@H]2COc2ccc(C(=O)O)cc2)ccc1NC(=O)Nc1ccccc1Cl` [Compound 107, 4-[1-[4-[N′-(2-chlorophenyl)ureido]-3-methoxyphenylacetyl]-(4S)-hydroxy-(2S)-pyrrolidinyl]methoxybenzoic acid], the melting point was 138 to 142 °C (dec.).
For the compound `COc1cc(CC(=O)N2C[C@@H](O)C[C@H]2COc2ccc(C(=O)O)cc2)ccc1NC(=O)Nc1ccccc1Br` [Compound 108], the melting point is 143 to 151 °C (dec.).
`COc1cc(CC(=O)N2C[C@H](O)C[C@H]2COc2ccc(C(=O)O)cc2)ccc1NC(=O)Nc1ccccc1Cl` [Compound 109] came in with a melting point of 137 to 142 °C.
Turning to `COc1cc(CC(=O)N2C[C@H](O)C[C@H]2COc2ccc(C(=O)O)cc2)ccc1NC(=O)Nc1ccccc1C` [Compound 110, 4-[(4R)-hydroxy-1-[3-methoxy-4-[N′-(2-methylphenyl)ureido]phenylacetyl]-(2S)-pyrrolidinylmethoxy]benzoic acid], the melting point is 178 to 182 °C.
As to `COc1cc(CC(=O)N2C[C@@H](Oc3ccc(C(=O)O)cc3)C[C@H]2COc2ccc(C(=O)O)cc2)ccc1NC(=O)Nc1ccccc1C` [Compound 116, 4-[(4S)-(4-carboxyphenoxy)-1-[3-methoxy-4-[N′-(2-methylphenyl)uriedo]phenylacetyl]-(2S)-pyrrolidinylmethoxy]benzoic acid], the melting point was 154 to 159 °C.
Compound `COc1cc(CC(=O)N2C[C@@H](Oc3ccc(C(=O)O)cc3)C[C@H]2COc2ccc(C(=O)O)cc2)ccc1NC(=O)Nc1ccccc1Cl` [Compound 117, 4-[(4S)-(4-carboxyphenoxy)-1-[4-[N′-(2-chlorophenyl)uriedo]-3-methoxyphenylacetyl]-(2S)-pyrrolidinylmethoxy]benzoic acid] displayed a melting point of 150 to 153 °C.
Under `Cc1ccccc1NC(=O)Nc1ccc(CC(=O)N2C[C@@H](Oc3ccc(C(=O)O)cc3)C[C@H]2COc2ccc(C(=O)O)cc2)cc1` [Compound 119, 4-[(4S)-(4-carboxyphenoxy)-1-[4-[N′-(2-methylphenyl)uriedo]phenylacetyl]-(2S)-pyrrolidinylmethoxy]benzoic acid] stands 157 to 160 °C.
Take `COc1cc(CC(=O)N2C[C@@H](Oc3ccc4ncccc4c3)C[C@H]2COc2ccc(C(=O)O)cc2)ccc1NC(=O)Nc1ccccc1Cl` [Compound 121]: the melting point was 129 to 133 °C.
In turn, `COc1cc(CC(=O)N2C[C@@H](Oc3ccc4ncccc4c3)C[C@H]2COc2ccc(C(=O)O)cc2)ccc1NC(=O)Nc1ccccc1Br` [Compound 122] had a melting point of 149 to 153 °C.
As for `COc1cc(CC(=O)N2C[C@H](OC)C[C@H]2COc2ccc(C(=O)O)cc2)ccc1NC(=O)Nc1ccccc1C` [Compound 135, 4-[(4R)-methoxy-1-[3-methoxy-4-[N′-(2-methylphenyl)ureido]phenylacetyl]-(2S)-pyrrolidinylmethoxy]benzoic acid], the melting point was 112 to 115 °C.
Take `COc1cc(CC(=O)N2C[C@H](OC)C[C@H]2COc2ccc(C(=O)O)cc2)ccc1NC(=O)Nc1ccccc1F` [Compound 136, 4-[1-[4-[N′-(2-fluorophenyl)ureido]-3-methoxyphenylacetyl]-(4R)-methoxy-(2S)-pyrrolidinylmethoxy]benzoic acid]: the melting point was 111 to 116 °C.
Regarding `COc1cc(CC(=O)N2C[C@H](OC)C[C@H]2COc2ccc(C(=O)O)cc2)ccc1NC(=O)Nc1ccccc1Br` [Compound 138, 4-[1-[4-[N′-(2-bromophenyl)ureido]-3-methoxyphenylacetyl]-(4R)-methoxy-(2S)-pyrrolidinylmethoxy]benzoic acid], the melting point was 125 to 130 °C.
`CN[C@@H]1C[C@@H](COc2ccc(C(=O)O)cc2)N(C(=O)Cc2ccc(NC(=O)Nc3ccccc3C)c(OC)c2)C1` [Compound 153, 4-[trans-1-[3-methoxy-4-[N′-(2-methylphenyl)ureido]phenylacetyl]4-methylamino-(2S)-pyrrolidinyl]methoxybenzoic acid] gave a melting point of 162 to 164 °C.
As for `COc1cc(CC(=O)N2C[C@@H](NS(=O)(=O)c3ccc4ccccc4c3)C[C@H]2COc2ccc(C(=O)O)cc2)ccc1NC(=O)Nc1ccccc1Cl` [Compound 161, 4-[cis-1-[4-[N′-(2-chlorophenyl)ureido]-3-methoxylphenylacetyl]-4-(2-naphthalenesulfonamido)-(2S)-pyrrolidinyl]methoxybenzoic acid], the melting point lay in the range of 135 to 142 °C.
`COc1cc(CC(=O)N2C[C@@H](NS(=O)(=O)c3c(C)cc(C)cc3C)C[C@H]2COc2ccc(C(=O)O)cc2)ccc1NC(=O)Nc1ccccc1Br` [Compound 162] returned a melting point of 130 to 132 °C.
The compound `COc1cc(CC(=O)N2C[C@@H](NS(C)(=O)=O)C[C@H]2COc2ccc(C(=O)O)cc2)ccc1NC(=O)Nc1ccccc1Br` [Compound 164, 4-[4-methanesulfonamido-1-[4-[N′-(2-bromophenyl)ureido]-3-methoxyphenylacetyl]-(2S)-pyrrolidinyl]methoxybenzoic acid] returned a melting point of 125 to 128 °C.
For the compound `COc1cc(CC(=O)N2C3CCCCC3C[C@H]2COc2ccc(C(=O)O)cc2)ccc1NC(=O)Nc1ccccc1C` (stereo partly drawn) [Compound 165, 4-[1-[3-methoxy-4-[N′-(2-methylphenyl)ureido]phenylacetyl]-(2S)-octahydroindolylmethoxy]benzoic acid], the melting point lay in the range of 130 to 134 °C.
Turning to `COc1cc(CC(=O)N2C3CCCCC3C[C@H]2COc2ccc(C(=O)O)cc2)ccc1NC(=O)Nc1ccccc1Br` (stereo partly drawn) [Compound 167, 4-[1-[4-[N′-(2-bromophenyl)ureido]-3-methoxyphenylacetyl]-(2S)-octahydroindolylmethoxy]benzoic acid], the melting point lay in the range of 118 to 123 °C.
As for `COc1cc(CC(=O)N2CCC[C@H]2COC2CCC(C(=O)O)CC2)ccc1NC(=O)Nc1ccccc1C` (stereo partly drawn) [Compound 174, 4-[[1-[3-methoxy-4-[N′(2-methylphenyl)ureido]phenylacetyl]-(2S)-pyrrolidinyl]methoxy]cyclohexanecarboxylic acid], the figure is 110 to 113 °C.
As for `COc1cc(CC(=O)N2CCC[C@H]2COC2CCC(C(=O)O)CC2)ccc1NC(=O)Nc1ccccc1Cl` (stereo partly drawn) [Compound 175, 4-[[1-[4-[N′-(2-chlorophenyl)ureido]-3-methoxylphenylacetyl]-(2S)-pyrrolidinyl]methoxy]cyclohexanecarboxylic acid], the figure is 111 to 115 °C; as for `COc1cc(CC(=O)N2CCC[C@H]2COC2CCC(C(=O)O)CC2)ccc1NC(=O)Nc1ccccc1Br` (stereo partly drawn) [Compound 176, 4-[1-[4-[N′-(2-bromophenyl)ureido]-3-methoxylphenylacetyl]-(2S)-pyrrolidinyl]methoxy cyclohexanecarboxilic acid], 108 to 111 °C.
With `Cc1ccccc1NC(=O)Nc1ccc(CC(=O)N2CCC[C@H]2COC2CCC(C(=O)O)CC2)cc1` (stereo partly drawn) [Compound 177, 4-[[1-[4-[N′-(2-methylphenyl)ureido]phenylacetyl]-(2S)-pyrrolidinyl]methoxy]cyclohexane carboxylic acid], the melting point fell in the range of 107 to 111 °C.
As for `COc1cc(CC(=O)N2C3CCCCC3C[C@H]2COC2CCC(C(=O)O)CC2)ccc1NC(=O)Nc1ccccc1Cl` (stereo partly drawn) [Compound 178, cis-4-[1-[4-[N′-(2-chlorophenyl)ureido]-3-methoxylphenylacetyl]-(2S)-octahydroindolylmethoxy]cyclohexanecarboxylic acid], the figure is 120 to 121 °C; as for `COc1cc(CC(=O)N2CC[C@H](Oc3ccc(C(=O)O)cc3)C2)ccc1NC(=O)Nc1ccccc1C` [Compound 182, 4-[1-[3-methoxy-4-[N′-(2-methylphenyl)ureido]phenylacetyl]-(3S)-pyrrolidinyloxy]benzoic acid], 131 to 135 °C.
As to `COc1cc(CC(=O)N2CC[C@H](Oc3ccc(C(=O)O)cc3)C2)ccc1NC(=O)Nc1ccccc1Cl` [Compound 183, 4-[1-[4-[N′-(2-chlorophenyl)ureido]-3-methoxyphenylacetyl]-(3S)-pyrrolidinyloxy]benzoic acid], the melting point lay in the range of 190 to 193 °C.
As for `COc1cc(CC(=O)N2CC[C@H](Oc3ccc(C(=O)O)cc3)C2)ccc1NC(=O)Nc1ccccc1Br` [Compound 184, 4-[1-[4-[N′-(2-bromophenyl)ureido]-3-methoxyphenylacetyl]-(3S)-pyrrolidinyloxy]benzoic acid], the figure is 173 to 175 °C; as for `COc1cc(CC(=O)N2CC[C@@H](Oc3ccc(C(=O)O)cc3)C2)ccc1NC(=O)Nc1ccccc1C` [Compound 185, 4-[1-[3-methoxy-4-[N′-(2-methylphenyl)ureido]phenylacetyl]-(3R)-pyrrolidinyloxy]benzoic acid], 158 to 162 °C.
